Test results as given in patent US20230183266A1, “CRYSTALLINE FORMS OF RET INHIBITOR AND PREPARATION THEREOF” (LOXO ONCOLOGY, INC., priority 2021, published 2023).
≈ marks a conversion by molar mass, not a printed value.

Columns and labels:
Assay type in all cases: physicochemical
[1] = solubility of crystalline forms in organic solvents
Source text: Forms A and B have similar solubilities.

[2] = hygroscopicity of the anhydrous polymorphs; conditions: Form A compared with Form B
Source text: (§1) In some embodiments, removal of the solvent molecule(s) from selpercatinib in solvated form can provide for selpercatinib Form A.

[3] = solid-form stability (thermodynamic stability, form conversion on storage, isolation and drying)
Source text: as §1
As noted above, selpercatinib can form solvates; and it can also form metastable solid forms, both of which are generally not stable on drying. […] The solvates and metastable forms usually revert to Form A during isolation and/or drying, although films or amorphous material occasionally form. The chloroform and 1,4-dioxane solvates were stable upon isolation/drying. Thus, one strategy for preparing selpercatinib Form A is to convert amorphous selpercatinib and/or selpercatinib Form B into a solvate and then desolvating the solvate, to afford Form A.
In one preferred embodiment, the Form A material is washed with MTBE or heptane and then dried under vacuum at a temperature of about 40 to about 45° C.
The formation of the solvate appears to remove any dependence on, or effect from, the seed crystal form.

Structure (SMILES) | solubility in many organic solvents ([1]; 25° C., methyl ethyl ketone (MEK), acetone, many alcohol based solvents) | solubility ([1]; organic solvents: dichloromethane, dimethylsulfoxide, organic solvent or mixture, moderate solubility, 25° C., DCM, DMSO, THF) [mg/mL] | hygroscopicity [2] | thermodynamic stability ([3]; Form A compared with Form B) | interconversion of polymorphs ([3]; typical storage or preparative conditions) | form conversion on drying of wet cake ([3]; wet cake dried at 45° C., ambient pressure, over several days) | solubility in anisole ([1]; anisole)
COc1ccc(CN2C3CC2CN(c2ccc(-c4cc(OCC(C)(C)O)cn5ncc(C#N)c45)cn2)C3)cn1 [Form A, 6-(2-hydroxy-2-methylpropoxy)-4-(6-(6-((6-methoxypyridin-3-yl)methyl)-3,6-diazabicyclo[3.1.1]heptan-3-yl)pyridin-3-yl)pyrazolo[1,5-a]pyridine-3-carbonitrile] | poor | 3 to 30 (≈ 5.71 to 57.1 mM) | slightly more hygroscopic | thermodynamically less stable | do not readily inter-convert | slowly converted the Form A to Form B | –
COc1ccc(CN2C3CC2CN(c2ccc(-c4cc(OCC(C)(C)O)cn5ncc(C#N)c45)cn2)C3)cn1 [Form B, 6-(2-hydroxy-2-methylpropoxy)-4-(6-(6-((6-methoxypyridin-3-yl)methyl)-3,6-diazabicyclo[3.1.1]heptan-3-yl)pyridin-3-yl)pyrazolo[1,5-a]pyridine-3-carbonitrile] | – | – | – | – | – | – | almost no solubility
